Three compounds from paper PMC3584946, “Three-component synthesis of pyrano[2,3-d]-pyrimidine dione derivatives facilitated by sulfonic acid nanoporous silica (SBA-Pr-SO3H) and their docking and urease inhibitory activity” (DARU Journal of Pharmaceutical Sciences, 2013) can be followed below.

The test addresses Jack bean urease (Canavalia ensiformis, UniProt P07374). The test can be described thus: phenol red urease assay, […] nm. The test is classed as biochemical.
[1] abbreviates: 100 mM urea, 10 mM phosphate pH 7.0, 37°C, 30 min, read-out: IC50.

Molecules are shown by their SMILES. Where two headings read alike, the source gives them in different places.

Chain of Jack bean urease (P07374 whole entry): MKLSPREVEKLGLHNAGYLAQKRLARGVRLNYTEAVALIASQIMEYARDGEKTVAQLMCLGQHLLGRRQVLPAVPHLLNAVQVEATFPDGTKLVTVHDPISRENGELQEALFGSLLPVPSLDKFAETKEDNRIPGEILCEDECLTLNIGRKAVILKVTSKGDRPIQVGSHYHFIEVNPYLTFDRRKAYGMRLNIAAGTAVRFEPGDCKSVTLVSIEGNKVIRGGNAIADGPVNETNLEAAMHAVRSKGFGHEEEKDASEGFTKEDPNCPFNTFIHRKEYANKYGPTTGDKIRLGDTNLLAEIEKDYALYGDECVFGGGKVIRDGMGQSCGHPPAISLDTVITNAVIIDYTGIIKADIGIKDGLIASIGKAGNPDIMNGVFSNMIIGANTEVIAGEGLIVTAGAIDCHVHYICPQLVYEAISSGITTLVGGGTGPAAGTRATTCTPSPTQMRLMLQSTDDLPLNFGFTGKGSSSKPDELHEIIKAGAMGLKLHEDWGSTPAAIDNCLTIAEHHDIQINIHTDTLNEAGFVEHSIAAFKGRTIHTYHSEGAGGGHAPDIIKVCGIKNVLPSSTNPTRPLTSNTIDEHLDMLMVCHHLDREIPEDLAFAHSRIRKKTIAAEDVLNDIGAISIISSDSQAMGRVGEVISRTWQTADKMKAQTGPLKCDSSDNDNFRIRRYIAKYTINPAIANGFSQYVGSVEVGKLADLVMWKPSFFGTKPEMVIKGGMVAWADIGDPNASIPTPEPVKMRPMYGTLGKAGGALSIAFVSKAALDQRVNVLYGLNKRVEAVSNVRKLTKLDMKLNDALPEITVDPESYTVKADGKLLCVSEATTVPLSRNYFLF

As to `Cc1cccc(C2C(C#N)=C(N)Oc3[nH]c(=O)[nH]c(=O)c32)c1` (stereo not drawn) [4f, 7-Amino-6-cyano-5-(3-methylphenyl)-5H-pyrano[2,3-d]pyrimidine-2,4(1H,3H)-diones], the IC50 under setting [1] came out at 41.1 µM.

As for `COc1cccc(C2C(C#N)=C(N)Oc3[nH]c(=O)[nH]c(=O)c32)c1` (stereo not drawn) [4h, 7-Amino-6-cyano-5-(3-methoxylphenyl)-5H-pyrano[2,3-d]pyrimidine-2,4(1H,3H)-diones], half-maximal inhibition (IC50) was put at 106 µM.

With `N#CC1=C(N)Oc2[nH]c(=O)[nH]c(=O)c2C1c1c(Cl)cccc1Cl` (stereo not drawn) [4k, 7-Amino-6-cyano-5-(2,6-dichlorophenyl)-5H-pyrano[2,3-d]pyrimidinone], the IC50 under setting [1] was 41 µM.
